Experiments:
[1] = target: T1, isolated recombinant JAK1 kinase domain (Homo sapiens, UniProt P23458); test: JAK enzyme assay (Caliper LabChip), JAK1; assay type: biochemical; settings: 1.5 nM JAK1, ATP 25 μM, 22° C., 30 minutes; Morrison tight binding model
T1 construct: isolated recombinant JAK1 and JAK2 kinase domain
Protocol: (§1) The activity of the isolated recombinant JAK1 and JAK2 kinase domain was measured by monitoring phosphorylation of a peptide derived from JAK3 (Val-Ala-Leu-Val-Asp-Gly-Tyr-Phe-Arg-Leu-Thr-Thr, fluorescently labeled on the N-terminus with 5-carboxyfluorescein) using the Caliper LabChip® technology (Caliper Life Sciences, Hopkinton, Mass.). To determine inhibition constants (Ki), compounds were diluted serially in DMSO and added to 50 μL kinase reactions containing purified enzyme (1.5 nM JAK1, or 0.2 nM JAK2), 100 mM HEPES buffer (pH 7.2), 0.015% Brij-35, 1.5 μM peptide substrate, ATP (25 μM), 10 mM MgCl2, 4 mM DTT at a final DMSO concentration of 2%. Reactions were incubated at 22° C. in 384-well polypropylene microtiter plates for 30 minutes and then stopped by addition of 25 μL of an EDTA containing solution (100 mM HEPES buffer (pH 7.2), 0.015% Brij-35, 150 mM EDTA), resulting in a final EDTA concentration of 50 mM. After termination of the kinase reaction, the proportion of phosphorylated product was determined as a fraction of total peptide substrate using the Caliper LabChip® 3000 according to the manufacturer's specifications. Ki values were then determined using the Morrison tight binding model (Morrison, J. F., Biochim. Biophys. Acta. 185:269-296 (1969); William, J. W. and Morrison, J. F., Meth. Enzymol., 63:437-467 (1979)) modified for ATP-competitive inhibition [Ki ═Ki,app/(1+[ATP]/Km,app)].

[2] = target: T2, isolated recombinant JAK2 kinase domain (Homo sapiens, UniProt O60674); test: JAK enzyme assay (Caliper LabChip), JAK2; assay type: biochemical; settings: 0.2 nM JAK2, ATP 25 μM, 22° C., 30 minutes; Morrison tight binding model
T2 construct: isolated recombinant JAK1 and JAK2 kinase domain
T2 sequence (O60674 849-1124 limits assumed): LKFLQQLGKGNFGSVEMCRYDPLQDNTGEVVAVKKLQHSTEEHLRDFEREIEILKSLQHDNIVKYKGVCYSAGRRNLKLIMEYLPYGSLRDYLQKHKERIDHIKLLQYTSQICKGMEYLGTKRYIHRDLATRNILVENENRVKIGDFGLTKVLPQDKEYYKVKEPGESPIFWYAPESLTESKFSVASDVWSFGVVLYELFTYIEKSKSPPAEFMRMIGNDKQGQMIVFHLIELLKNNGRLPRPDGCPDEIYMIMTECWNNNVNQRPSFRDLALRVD
Protocol: as §1

T1 sequence (P23458 875-1153 limits assumed): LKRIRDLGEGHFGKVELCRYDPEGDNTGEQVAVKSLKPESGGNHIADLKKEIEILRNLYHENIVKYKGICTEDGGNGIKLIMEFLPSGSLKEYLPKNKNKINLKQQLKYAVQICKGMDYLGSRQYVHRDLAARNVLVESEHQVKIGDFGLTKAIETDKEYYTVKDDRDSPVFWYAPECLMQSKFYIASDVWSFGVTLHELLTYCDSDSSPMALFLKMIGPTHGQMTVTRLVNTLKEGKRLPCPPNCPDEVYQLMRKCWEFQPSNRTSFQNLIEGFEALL

SMILES	Ki [1]	Ki [2]
COCCOc1ccc(COc2ccc(-c3cccn4nc(Nc5cnn(C)c5)nc34)cc2)cn1 [Compound 3-1, 8-[4-[[6-(2-methoxyethoxy)-3-pyridyl]methoxy]phenyl]-N-(1-methylpyrazol-4-yl)-[1,2,4]triazolo[1,5-a]pyridin-2-amine]	0.63 nM	0.32 nM
CNCCn1cc(Nc2nc3c(-c4ccc(OCc5ccc(OCCOC)nc5)cc4)cccn3n2)cn1 [Compound 3-2, 8-[4-[[6-(2-methoxyethoxy)-3-pyridyl]methoxy]phenyl]-N-[1-[2-(methylamino)ethyl]pyrazol-4-yl]-[1,2,4]triazolo[1,5-a]pyridin-2-amine]	2.4 nM	0.86 nM
COCCOc1ccc(COc2ccc(-c3cccn4nc(Nc5cnn(C6CCNCC6)c5)nc34)cc2)cn1 [Compound 3-3, 8-[4-[[6-(2-methoxyethoxy)-3-pyridyl]methoxy]phenyl]-N-[1-(4-piperidyl)pyrazol-4-yl]-[1,2,4]triazolo[1,5-a]pyridin-2-amine]	0.82 nM	0.2 nM
COCCOc1ccc(COc2ccc(-c3cccn4nc(Nc5cnn(C[C@H]6CCCN6)c5)nc34)cc2)cn1 [Compound 3-4, 8-[4-[[6-(2-methoxyethoxy)-3-pyridyl]methoxy]phenyl]-N-[1-[[(2R)-pyrrolidin-2-yl]methyl]pyrazol-4-yl]-[1,2,4]triazolo[1,5-a]pyridin-2-amine]	1.9 nM	0.48 nM
CNCCCn1cc(Nc2nc3c(-c4ccc(OCc5ccc(OCCOC)nc5)cc4)cccn3n2)cn1 [Compound 3-5, 8-[4-[[6-(2-methoxyethoxy)-3-pyridyl]methoxy]phenyl]-N-[1-[3-(methylamino)propyl]pyrazol-4-yl]-[1,2,4]triazolo[1,5-a]pyridin-2-amine]	0.74 nM	0.28 nM
Cn1cc(Nc2nc3c(N4CCC(CN)(c5ccc(Cl)cc5)CC4)cccn3n2)cn1 [D, 8-[4-(aminomethyl)-4-(4-chlorophenyl)-1-piperidyl]-N-(1-methylpyrazol-4-yl)-[1,2,4]triazolo[1,5-a]pyridin-2-amine]	0.55 nM	0.94 nM
COC(=O)CN1CCC2(CC1)CN(C(=O)N1CC=C(c3cccn4nc(Nc5cnn(C)c5)nc34)CC1)C2 [E, methyl 2-[2-[4-[2-[(1-methylpyrazol-4-yl)amino]-[1,2,4]triazolo[1,5-a]pyridin-8-yl]-3,6-dihydro-2H-pyridine-1-carbonyl]-2,7-diazaspiro[3.5]nonan-7-yl]acetate]	38 nM	20 nM
COC(=O)CNCC1(c2ccc(Cl)cc2)CCN(c2cccn3nc(Nc4cnn(C)c4)nc23)CC1 [F, formic acid; methyl 2-[[4-(4-chlorophenyl)-1-[2-[(1-methylpyrazol-4-yl)amino]-[1,2,4]triazolo[1,5-a]pyridin-8-yl]-4-piperidyl]methylamino]]	1.4 nM	0.53 nM
Cn1cc(Nc2nc3c(N4CCC(CNCC(F)(F)F)(c5ccc(Cl)cc5)CC4)cccn3n2)cn1 [G, 8-[4-(4-chlorophenyl)-4-[(2,2,2-trifluoroethylamino)methyl]-1-piperidyl]-N-(1-methylpyrazol-4-yl)-[1,2,4]triazolo[1,5-a]pyridin-2-amine]	10 nM	2.9 nM
Cn1cc(Nc2nc3c(N4CCC(CCN5CCOCC5)(c5ccc(Cl)cc5)CC4)cccn3n2)cn1 [H, 8-[4-(4-chlorophenyl)-4-(2-morpholinoethyl)-1-piperidyl]-N-(1-methylpyrazol-4-yl)-[1,2,4]triazolo[1,5-a]pyridin-2-amine]	11 nM	3.5 nM
CN(C)C(=O)CN1CCC2(CC1)CN(C(=O)N1CC=C(c3cccn4nc(Nc5cnn(C)c5)nc34)CC1)C2 [I, N,N-dimethyl-2-[2-[4-[2-[(1-methylpyrazol-4-yl)amino]-[1,2,4]triazolo[1,5-a]pyridin-8-yl]-3,6-dihydro-2H-pyridine-1-carbonyl]-2,7-diazaspiro[3.5]nonan-7-yl]acetamide]	190 nM	86 nM
CSc1ccc(C2(CO)CCN(c3cccn4nc(Nc5cnn(CCN6CCC(N7CCOCC7)CC6)c5)nc34)CC2)cc1 [J, [4-(4-methylsulfanylphenyl)-1-[2-[[1-[2-(4-morpholino-1-piperidyl)ethyl]pyrazol-4-yl]amino]-[1,2,4]triazolo[1,5-a]pyridin-8-yl]-4-piperidyl]methanol]	1.7 nM	0.47 nM
CSc1ccc(C2(CC#N)CCN(c3cccn4nc(Nc5cnn(CCN6CCC(N7CCOCC7)CC6)c5)nc34)CC2)cc1 [K, 2-[4-(4-methylsulfanylphenyl)-1-[2-[[1-[2-(4-morpholino-1-piperidyl)ethyl]pyrazol-4-yl]amino]-[1,2,4]triazolo[1,5-a]pyridin-8-yl]-4-piperidyl]acetonitrile]	2.7 nM	1.1 nM
CSc1ccc(C2(CC#N)CCN(c3cccn4nc(Nc5cnn(CCN6CCN(C(C)=O)CC6)c5)nc34)CC2)cc1 [L, 2-[1-[2-[[1-[2-(4-acetylpiperazin-1-yl)ethyl]pyrazol-4-yl]amino]-[1,2,4]triazolo[1,5-a]pyridin-8-yl]-4-(4-methylsulfanylphenyl)-4-piperidyl]acetonitrile]	2.6 nM	0.65 nM
CSc1ccc(C2(CC#N)CCN(c3cccn4nc(Nc5cnn(CCN6CCN(C7CCOCC7)CC6)c5)nc34)CC2)cc1 [M, 2-[4-(4-methylsulfanylphenyl)-1-[2-[[1-[2-(4-tetrahydropyran-4-ylpiperazin-1-yl)ethyl]pyrazol-4-yl]amino]-[1,2,4]triazolo[1,5-a]pyridin-8-yl]-4-piperidyl]acetonitrile]	3.3 nM	0.96 nM
CSc1ccc(C2(CC#N)CCN(c3cccn4nc(Nc5cnn(CCN(C)C)c5)nc34)CC2)cc1 [N, 2-[1-[2-[[1-[2-(dimethylamino)ethyl]pyrazol-4-yl]amino]-[1,2,4]triazolo[1,5-a]pyridin-8-yl]-4-(4-methylsulfanylphenyl)-4-piperidyl]acetonitrile]	5.1 nM	1.2 nM
CSc1ccc(C2(CC#N)CCN(c3cccn4nc(Nc5cnn(CCN6CCN(C)C(=O)C6)c5)nc34)CC2)cc1 [O, 2-[1-[2-[[1-[2-(4-methyl-3-oxo-piperazin-1-yl)ethyl]pyrazol-4-yl]amino]-[1,2,4]triazolo[1,5-a]pyridin-8-yl]-4-(4-methylsulfanylphenyl)-4-piperidyl]acetonitrile]	4.6 nM	1 nM
CSc1ccc(C2(CC#N)CCN(c3cccn4nc(Nc5cnn(CCNC6COC6)c5)nc34)CC2)cc1 [P, 2-[4-(4-methylsulfanylphenyl)-1-[2-[[1-[2-(oxetan-3-ylamino)ethyl]pyrazol-4-yl]amino]-[1,2,4]triazolo[1,5-a]pyridin-8-yl]-4-piperidyl]acetonitrile]	2.4 nM	0.72 nM
CSc1ccc(C2(CC#N)CCN(c3cccn4nc(Nc5cnn(CCN6CCN(C(=O)N(C)C)CC6)c5)nc34)CC2)cc1 [Q, 4-[2-[4-[[8-[4-(cyanomethyl)-4-(4-methylsulfanylphenyl)-1-piperidyl]-[1,2,4]triazolo[1,5-a]pyridin-2-yl]amino]pyrazol-1-yl]ethyl]-N,N-dimethyl-piperazine-1-carboxamide]	2.9 nM	0.67 nM
CSc1ccc(C2(CO)CCN(c3cccn4nc(Nc5cnn(CCN)c5)nc34)CC2)cc1 [R, [1-[2-[[1-(2-aminoethyl)pyrazol-4-yl]amino]-[1,2,4]triazolo[1,5-a]pyridin-8-yl]-4-(4-methylsulfanylphenyl)-4-piperidyl]methanol]	2.9 nM	1.4 nM
CCc1cnn(C2(CC#N)CN(c3cccn4nc(Nc5cnn(Cc6cn(C7CCN(C8COC8)CC7)nn6)c5)nc34)C2)c1 [S, 2-[3-(4-ethylpyrazol-1-yl)-1-[1-[[1-[[1-[1-(oxetan-3-yl)-4-piperidyl]triazol-4-yl]methyl]pyrazol-4-yl]amino]-[1,2,4]triazolo[1,5-a]pyridin-8-yl]azetidin-3-yl]acetonitrile]	0.9 nM	0.57 nM

Reference: patent publication US20180327402A1, “TRIAZOLOPYRIDINE COMPOUNDS AND METHODS OF USE THEREOF” (Genentech, Inc., priority 2015, published 2018)
